Measured values: publication PMC4043666, “Mass Spectrometry Based Identification of Geometric Isomers during Metabolic Stability Study of a New Cytotoxic Sulfonamide Derivatives Supported by Quantitative Structure-Retention Relationships” (PLoS ONE, 2014)

Legend:
[1] = In vitro metabolic stability in human liver microsomes (LC-MS); type: in vitro ADME; conditions: for % of compound remaining after 120 min incubation: HLM 0.53 mg/mL, 1 mM NADPH, compound 10 µM, phosphate buffer pH 7.4, 37°C, percentage of peak area of trans isomer at start of incubation
Protocol: Stock solutions of the studied compounds were made at a concentration of 1 mM in DMSO:MeOH mixture (10∶90 v/v) to prevent their precipitation. For biotransformation incubations, the solution of compounds was diluted to 10 µM with the presence of 1 mM of NADPH (Sigma-Aldrich, St. Louis, MO, USA) in a potassium phosphate buffer (0.1 M, pH 7.4). Incubation was carried out in thermoblock (Labnet International, Edison, NJ, USA) at 37°C and started with the addition of pooled human liver microsomes with a final concentration of 0.53 mg/mL (Sigma-Aldrich, St. Louis, MO, USA). Directly after HLM was added and at 120 min of incubation the reaction was ended by the addition of an equal volume of ice-cold methanol with 0.1% (v/v) of formic acid. The samples were immediately centrifuged (10 min at 11700 g) and the resulting supernatant was directly analyzed or kept at −80°C until LC-MS or LC-QTOF-MS analysis.
(§1) LC-MS analysis was performed on an Agilent 1260 system coupled to a SingleQuad 6120 mass spectrometer (Agilent Technologies, Santa Clara, CA, USA). The amount of remaining parent compound was determined as a percentage of a peak area of a trans isomer at the start of the incubation.
(§2) A Poroshell C18 EC120 column (3.0×100 mm, 2.7 µm, Agilent Technologies, Santa Clara, CA, USA) was used in reversed-phase mode with gradient elution starting with 5% of phase A (0.1% formic acid in water) and 95% of phase B (0.1% formic acid in acetonitrile). […] The total analysis time was 42 min at 25°C, the flow rate was 0.25 mL/min and the injection volume was 20 µL. The mass spectrometer was equipped with an electrospray ionization source and the ionization mode was positive. The mass analyzer was set individually to each derivative to detect pseudomolecular ions [M+H^+]. The mass spectrometry detector parameters of the ESI source were as follows: nebulizer pressure 40 psi (N2), drying gas […] (N2), drying gas temperature 300°C, capillary voltage +3 kV.

[2] = Chemical stability / cis-trans isomerization in solution (LC-MS); type: physicochemical; conditions: for % of isomerization at the beginning of incubation: biotransformation incubation samples, start of incubation
Protocol: Additionally, chemical stability (negative control) in biotransformation experiment conditions was performed (phosphate buffer, 37°C, 2 h) to evaluate possible instability, unrelated to the activity of microsomes (including putative isomerization).
as §1, §2

[3] = RP-LC determination of chromatographic lipophilicity log kw (DryLab); type: physicochemical; conditions: Poroshell EC18 column, 30°C, acetonitrile 5-100% gradients of 30 and 60 min, calculated with DryLab
Protocol: (2) In order to obtain input lipophilicity data, reversed-phase liquid chromatography (RP-LC) log kw determination experiments were performed using the Agilent 1260 apparatus (Agilent Technologies, Santa Clara, CA, USA) equipped with UV and single quadrupole mass detectors, and an autosampler and column thermostat. A Poroshell EC18 150×3 mm column with a particle size of 2.7 µm was applied. Chromatographic measurements were made at 30°C with an eluent flow rate of 0.25 mL/min. Two chromatographic runs were conducted for each compound with different linear gradient times (30 and 60 min), and with an acetonitrile composition in the mobile phase increasing from 5% to 100%. The obtained retention times were further used to calculate log kw values applying the DryLab 2000 Plus software (LC Resources, Walnut Creek, CA, USA). DryLab estimated the log kw value according to the linear equation: log k = logkw+Sφ (k – retention factor, S – slope, φ – volume fraction of the organic modifier) The elution program, as well as the column, mobile phase and instrument properties were taken into account to determine the coefficients in the abovementioned equation. Two analytical runs were required to fit the data, and peak assignment was done manually to ensure the correct identification.

% of compound remaining after 120 min incubation [1] [%] | % of isomerization at the beginning of incubation [2] [%] | logkw [3] | biotransformation reactions observed ([1]; HLM with NADPH, LC-MS/MS) | Structure (SMILES) | cis-trans isomerization in the studied conditions ([2]; water solution / incubation conditions)
90.80 | 7.79 |  |  | Cc1cc(S(N)(=O)=O)c(S/C(=N/Nc2ccc([N+](=O)[O-])cc2)c2ccc(Cl)cc2)cc1Cl [Compound 10] | 
79.95 | 5.84 |  |  | Cc1cc(S(N)(=O)=O)c(S/C(CC(C)C)=N/Nc2ccc([N+](=O)[O-])cc2)cc1Cl [Compound 5] | 
95.33 | 2.66 |  |  | COc1ccc(/C(=N\Nc2ccc([N+](=O)[O-])cc2)Sc2cc(Cl)c(C)cc2S(N)(=O)=O)cc1 [Compound 13] | 
53.51 | 5.84 |  |  | CCC(=NNc1ccc([N+](=O)[O-])cc1)Sc1cc(Cl)c(C)cc1S(N)(=O)=O [Compound 1] | 
76.13 | 7.76 |  |  | Cc1cc(S(N)(=O)=O)c(S/C(=N/Nc2ccc([N+](=O)[O-])cc2)C(C)C)cc1Cl [Compound 3] | 
60.90 | 5.53 |  |  | CCCCC/C(=N\Nc1ccc([N+](=O)[O-])cc1)Sc1cc(Cl)c(C)cc1S(N)(=O)=O [Compound 7] | 
83.88 | 3.50 |  |  | Cc1cc(S(N)(=O)=O)c(S/C(=N/Nc2ccc([N+](=O)[O-])cc2)C(C)(C)C)cc1Cl [Compound 6] | 
 |  | 3.60 |  | CC/C(=N\Nc1ccc([N+](=O)[O-])cc1)Sc1cc(Cl)c(C)cc1S(N)(=O)=O [1-trans] | 
74.88 |  |  | reductive debromination reaction | Cc1cc(S(N)(=O)=O)c(SC(=NNc2ccc([N+](=O)[O-])cc2)c2ccc(O)c(Br)c2)cc1Cl [Compound 14] | 
 |  | 3.52 |  | CC/C(=N/Nc1ccc([N+](=O)[O-])cc1)Sc1cc(Cl)c(C)cc1S(N)(=O)=O [1-cis] | 
99.40 | 4.93 |  |  | Cc1cc(S(N)(=O)=O)c(S/C(=N/Nc2ccc([N+](=O)[O-])cc2)c2ccc3ccccc3c2)cc1Cl [Compound 15] | 
96.03 | 9.28 |  |  | Cc1cc(S(N)(=O)=O)c(S/C(=N/Nc2ccc([N+](=O)[O-])cc2)c2ccccc2)cc1Cl [Compound 9] | 
58.23 | 5.25 |  |  | Cc1cc(S(N)(=O)=O)c(S/C(CCc2ccccc2)=N/Nc2ccc([N+](=O)[O-])cc2)cc1Cl [Compound 8] | 
95.11 | 5.41 |  |  | Cc1ccc(/C(=N\Nc2ccc([N+](=O)[O-])cc2)Sc2cc(Cl)c(C)cc2S(N)(=O)=O)cc1 [Compound 12] | 
75.13 | 6.52 |  |  | CCC/C(=N\Nc1ccc([N+](=O)[O-])cc1)Sc1cc(Cl)c(C)cc1S(N)(=O)=O [Compound 2] | 

Structure (SMILES) | % of compound remaining after 120 min incubation [1] [%] | % of isomerization at the beginning of incubation [2] [%] | logkw [3] | biotransformation reactions observed ([1]; HLM with NADPH, LC-MS/MS) | cis-trans isomerization in the studied conditions ([2]; water solution / incubation conditions)
Cc1cc(S(N)(=O)=O)c(S/C(=N/Nc2ccc([N+](=O)[O-])cc2)c2ccc([N+](=O)[O-])cc2)cc1Cl [Compound 11] | 98.97 | 1.50 |  |  | 
Cc1cc(S(N)(=O)=O)c(S/C(=N/Nc2ccc([N+](=O)[O-])cc2[N+](=O)[O-])C(C)C)cc1Cl [Compound 4] | 62.86 | 0.00 |  |  | did not occur
